In patent US20120190754A1, “ANTIMICROBIAL COMPOSITION CONTAINING PARACHLORMETAXYLENOL” (Sentinel Products Corp., priority 2009, published 2012):

Tested on: bacteria or mold
Test: retention of antimicrobial activity on a substrate
Details: no test method described

Cc1cc(O)cc(C)c1Cl [PCMX, 4-chloro-3,5-dimethyl phenol]
duration of antimicrobial effect on a substrate: hours
